Measurements published in patent US12077503B2, “Substituted cyclic amides and their use as herbicides” (FMC CORPORATION, priority 2015, dated 2024).

Legend:
Format in all cases: in vivo
[1] = tested on: pigweed (Amaranthus retroflexus); test: Test A preemergence; conditions: for Plant response rating, Pigweed: 125 g ai/ha; for Pigweed plant response rating (0 to 100 scale, 0 is no effect, 100 is complete control): 500 g ai/ha, visual injury approx. 10 d
[2] = tested on: barnyardgrass (Echinochloa crus-galli); test: Test A preemergence; conditions: for Plant response rating, Barnyardgrass: 125 g ai/ha; for Barnyardgrass plant response rating (0 to 100 scale, 0 is no effect, 100 is complete control): 500 g ai/ha, visual injury approx. 10 d
How it was run: (§1)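 Visual injury scores from 0, no effect, to 100, complete control, were assigned versus untreated controls roughly 10 d after treatment in the greenhouse. Test chemicals, formulated with surfactant in a non-phytotoxic solvent, were applied to planted seeds as a preemergence soil spray or postemergence to one- to two-leaf plants 2 to 10 cm tall, in loam–sand soil.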

[3] = tested on: giant foxtail (Setaria faberii); test: Test A preemergence; conditions: for Plant response rating, Foxtail, Giant: 125 g ai/ha; for Foxtail, Giant plant response rating (0 to 100 scale, 0 is no effect, 100 is complete control): 500 g ai/ha, visual injury approx. 10 d
How it was run: as §1

[4] = tested on: ragweed (common ragweed, Ambrosia elatior); test: Test A preemergence; conditions: for Plant response rating, Ragweed: 125 g ai/ha
How it was run: as §1

[5] = tested on: ryegrass, Italian (Italian ryegrass, Lolium multiflorum); test: Test A preemergence; conditions: for Plant response rating, Ryegrass, Italian: 125 g ai/ha; for Ryegrass, Italian plant response rating (0 to 100 scale, 0 is no effect, 100 is complete control): 500 g ai/ha, visual injury approx. 10 d
How it was run: as §1

[6] = tested on: Kochia (Kochia scoparia); test: Test A preemergence; conditions: for Plant response rating, Kochia: 125 g ai/ha; for Kochia plant response rating (0 to 100 scale, 0 is no effect, 100 is complete control): 500 g ai/ha, visual injury approx. 10 d
How it was run: as §1

[7] = tested on: pigweed (Amaranthus retroflexus); test: Test A postemergence
How it was run: as §1

[8] = tested on: wheat (Triticum aestivum); test: Test A postemergence
How it was run: as §1

[9] = tested on: barnyardgrass (Echinochloa crus-galli); test: Test A postemergence
How it was run: as §1

[10] = tested on: corn (Zea mays); test: Test A postemergence
How it was run: as §1

[11] = tested on: blackgrass (Alopecurus myosuroides); test: Test A postemergence
How it was run: as §1

[12] = tested on: giant foxtail (Setaria faberii); test: Test A postemergence
How it was run: as §1

[13] = tested on: Galium (catchweed bedstraw, Galium aparine); test: Test A postemergence
How it was run: as §1

[14] = tested on: ragweed (common ragweed, Ambrosia elatior); test: Test A postemergence
How it was run: as §1

[15] = tested on: ryegrass, Italian (Italian ryegrass, Lolium multiflorum); test: Test A postemergence
How it was run: as §1

[16] = tested on: Kochia (Kochia scoparia); test: Test A postemergence
How it was run: as §1

[17] = tested on: barnyardgrass (Echinochloa crus-galli); test: Test C flooded paddy test; conditions: Flood, 0 is no effect, 100 is complete control
How it was run: (§2)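 Compound was added directly to paddy water held 3 cm above the soil, with plants at the 2-leaf stage. Injury was scored visually versus untreated controls after 13–15 d greenhouse growth, using a 0–100 scale where 100 means complete control.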

[18] = tested on: sedge, umbrella (small-flower umbrella sedge, Cyperus difformis); test: Test C flooded paddy test; conditions: Flood, 0 is no effect, 100 is complete control
How it was run: as §2

[19] = tested on: ducksalad (Heteranthera limosa); test: Test C flooded paddy test; conditions: Flood, 0 is no effect, 100 is complete control
How it was run: as §2

[20] = tested on: rice (Oryza sativa); test: Test C flooded paddy test; conditions: Flood, 0 is no effect, 100 is complete control
How it was run: as §2

[21] = tested on: rice (Oryra sativa); test: Test B flooded paddy test; conditions: Flood, 250 g ai/ha; 0 to 100 scale where 0 is no effect and 100 is complete control; 13 to 15 d
How it was run: (§3)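 Visual ratings (0 none to 100 complete control) are relative to untreated plants, taken 13–15 d after treatment in a greenhouse. Test material went straight into floodwater standing 3 cm above the soil, kept constant, on plants at the 2-leaf stage.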

[22] = tested on: barnyardgrass (Echinochloa crus-galli); test: Test B flooded paddy test; conditions: Flood, 250 g ai/ha; 0 to 100 scale where 0 is no effect and 100 is complete control; 13 to 15 d
How it was run: as §3

[23] = tested on: sedge, umbrella (small-flower umbrella sedge, Cyperus difformis); test: Test B flooded paddy test; conditions: Flood, 250 g ai/ha; 0 to 100 scale where 0 is no effect and 100 is complete control; 13 to 15 d
How it was run: as §3

[24] = tested on: ducksalad (Heteranthera limosa); test: Test B flooded paddy test; conditions: Flood, 250 g ai/ha; 0 to 100 scale where 0 is no effect and 100 is complete control; 13 to 15 d
How it was run: as §3

[25] = Preemergence, visual injury after approximately 10 d, 0 to 100 scale where 0 is no effect and 100 is complete control
[26] = 125 g ai/ha, postemergence, visual rating after approx. 10 d, 0 to 100 scale (0 no effect, 100 complete control)
[27] = Postemergence, 500 g ai/ha, 0 to 100 scale where 0 is no effect and 100 is complete control
[28] = preemergence, 0 to 100 scale (0 no effect, 100 complete control)
[29] = 125 g ai/ha, postemergence, visual injury rating on 0 to 100 scale (0 no effect, 100 complete control), approx. 10 d
[30] = 500 g ai/ha, postemergence, 0 to 100 scale, 0 no effect, 100 complete control

CN1CC(c2ccc(F)c(C(F)(F)F)c2)C(C(=O)Nc2ccccc2F)C1=O (stereo not shown) [Compound 611]
30: Plant response rating, Pigweed [7, 27] | Plant response rating, Ragweed [14, 27]
40: Plant response rating, Kochia [6, 25] | Plant response rating, Wheat [8, 26] | Plant response rating, Ryegrass, Italian [15, 26] | Plant response rating, Rice [21]
90: Plant response rating, Barnyardgrass [2, 25] | Barnyardgrass plant response rating (0 to 100 scale, 0 is no effect, 100 is complete control) ([2]; Preemergence) | Plant response rating, Foxtail, Giant [3, 25] | Foxtail, Giant plant response rating (0 to 100 scale, 0 is no effect, 100 is complete control) ([3]; Preemergence) | Plant response rating, Barnyardgrass [9, 26] | Plant response rating, Barnyardgrass [9, 27] | Plant response rating, Foxtail, Giant [12, 26] | Plant response rating, Foxtail, Giant [12, 27]
50: Plant response rating, Corn [10, 26] | Plant response rating, Blackgrass [11, 26] | Plant response rating, Galium [13, 26]
100: Plant response rating, Ducksalad [24]
85: Plant response rating, Barnyardgrass [22]
60: Plant response rating, Ryegrass, Italian [5, 25] | Ryegrass, Italian plant response rating (0 to 100 scale, 0 is no effect, 100 is complete control) ([5]; Preemergence) | Kochia plant response rating (0 to 100 scale, 0 is no effect, 100 is complete control) ([6]; Preemergence) | Plant response rating, Wheat [8, 27] | Plant response rating, Galium [13, 27] | Plant response rating, Kochia [16, 26] | Plant response rating (scale of 0 to 100), Barnyardgrass ([17]; 125 g ai/ha)
15: Plant response rating (scale of 0 to 100), Rice ([20]; 250 g ai/ha)
75: Plant response rating (scale of 0 to 100), Barnyardgrass ([17]; 250 g ai/ha)
70: Plant response rating, Pigweed [1, 25] | Plant response rating, Corn [10, 27] | Plant response rating, Blackgrass [11, 27] | Plant response rating, Ryegrass, Italian [15, 27] | Plant response rating, Kochia [16, 27]
0: Plant response rating, Ragweed [4, 25] | Plant response rating, Ragweed [14, 26] | Plant response rating (scale of 0 to 100), Barnyardgrass ([17]; 31 g ai/ha) | Plant response rating (scale of 0 to 100), Barnyardgrass ([17]; 62 g ai/ha) | Plant response rating (scale of 0 to 100), Sedge, Umbrella ([18]; 31 g ai/ha) | Plant response rating (scale of 0 to 100), Sedge, Umbrella ([18]; 62 g ai/ha) | Plant response rating (scale of 0 to 100), Sedge, Umbrella ([18]; 125 g ai/ha) | Plant response rating (scale of 0 to 100), Sedge, Umbrella ([18]; 250 g ai/ha) | Plant response rating (scale of 0 to 100), Ducksalad ([19]; 31 g ai/ha) | Plant response rating (scale of 0 to 100), Ducksalad ([19]; 62 g ai/ha) | Plant response rating (scale of 0 to 100), Rice ([20]; 31 g ai/ha) | Plant response rating (scale of 0 to 100), Rice ([20]; 62 g ai/ha) | Plant response rating (scale of 0 to 100), Rice ([20]; 125 g ai/ha) | Plant response rating, Sedge, Umbrella [23]
95: Plant response rating (scale of 0 to 100), Ducksalad ([19]; 250 g ai/ha)
80: Pigweed plant response rating (0 to 100 scale, 0 is no effect, 100 is complete control) ([1]; Preemergence) | Plant response rating (scale of 0 to 100), Ducksalad ([19]; 125 g ai/ha)
20: Plant response rating, Pigweed [7, 26]

O=C1NCC(c2ccc(F)cc2F)C1C(=O)Nc1cccc(F)c1F (stereo not shown) [Compound 455]
50: Pigweed plant response rating (0 to 100 scale, 0 is no effect, 100 is complete control) ([1]; Preemergence) | Kochia plant response rating (0 to 100 scale, 0 is no effect, 100 is complete control) ([6]; Preemergence) | Pigweed plant response rating [7, 29] | Plant response rating (scale of 0 to 100), Barnyardgrass ([17]; 250 g ai/ha)
0: Plant response rating, Pigweed [1, 28] | Plant response rating, Ragweed [4, 28] | Ragweed plant response rating (0 to 100 scale, 0 is no effect, 100 is complete control) ([4]; Preemergence, 500 g ai/ha, visual injury approx. 10 d) | Plant response rating, Ryegrass, Italian [5, 28] | Ryegrass, Italian plant response rating (0 to 100 scale, 0 is no effect, 100 is complete control) ([5]; Preemergence) | Wheat plant response rating [8, 29] | Corn plant response rating [10, 29] | Plant response rating, Corn [10, 30] | Blackgrass plant response rating [11, 29] | Plant response rating, Blackgrass [11, 30] | Ragweed plant response rating [14, 29] | Plant response rating, Ragweed [14, 30] | Ryegrass, Italian plant response rating [15, 29] | Plant response rating, Ryegrass, Italian [15, 30] | Plant response rating (scale of 0 to 100), Barnyardgrass ([17]; 31 g ai/ha) | Plant response rating (scale of 0 to 100), Barnyardgrass ([17]; 62 g ai/ha) | Plant response rating (scale of 0 to 100), Barnyardgrass ([17]; 125 g ai/ha) | Plant response rating (scale of 0 to 100), Sedge, Umbrella ([18]; 31 g ai/ha) | Plant response rating (scale of 0 to 100), Sedge, Umbrella ([18]; 62 g ai/ha) | Plant response rating (scale of 0 to 100), Sedge, Umbrella ([18]; 125 g ai/ha) | Plant response rating (scale of 0 to 100), Sedge, Umbrella ([18]; 250 g ai/ha) | Plant response rating (scale of 0 to 100), Ducksalad ([19]; 31 g ai/ha) | Plant response rating (scale of 0 to 100), Rice ([20]; 31 g ai/ha) | Plant response rating (scale of 0 to 100), Rice ([20]; 62 g ai/ha) | Plant response rating (scale of 0 to 100), Rice ([20]; 125 g ai/ha) | Plant response rating (scale of 0 to 100), Rice ([20]; 250 g ai/ha) | Plant response rating, Rice [21] | Plant response rating, Sedge, Umbrella [23]
20: Plant response rating, Kochia [6, 28]
30: Plant response rating, Wheat [8, 30] | Galium plant response rating [13, 29]
90: Barnyardgrass plant response rating (0 to 100 scale, 0 is no effect, 100 is complete control) ([2]; Preemergence) | Foxtail, Giant plant response rating (0 to 100 scale, 0 is no effect, 100 is complete control) ([3]; Preemergence)
75: Plant response rating, Barnyardgrass [22]
60: Plant response rating, Pigweed [7, 30] | Kochia plant response rating [16, 29]
80: Plant response rating, Foxtail, Giant [3, 28] | Plant response rating, Barnyardgrass [9, 30] | Plant response rating, Foxtail, Giant [12, 30] | Plant response rating (scale of 0 to 100), Ducksalad ([19]; 125 g ai/ha)
40: Plant response rating (scale of 0 to 100), Ducksalad ([19]; 62 g ai/ha)
70: Plant response rating, Barnyardgrass [2, 28] | Barnyardgrass plant response rating [9, 29] | Foxtail, Giant plant response rating [12, 29] | Plant response rating, Galium [13, 30] | Plant response rating, Kochia [16, 30]
100: Plant response rating (scale of 0 to 100), Ducksalad ([19]; 250 g ai/ha) | Plant response rating, Ducksalad [24]
